Results as given in article PMC7577153, “Identification of Small-Molecule Inhibitors Targeting Porphyromonas gingivalis Interspecies Adherence and Determination of Their In Vitro and In Vivo Efficacies” (Antimicrobial Agents and Chemotherapy, 2020).
Where two headings read alike, the source gives them in different places.

Tests used:
P. gingivalis virulence = assay: murine model of periodontitis (alveolar bone loss); format: in vivo, BALB/c/ByJ mice; details: for alveolar bone loss relative to sham-infected mice / alveolar bone loss versus infected untreated mice: mice infected with S. gordonii and P. gingivalis, compound 40 μM; for alveolar bone loss versus infected untreated mice: P < 0.001
Description: The in vivo activity of compounds N7, N17, and V8 was determined using a murine model of periodontitis as described by Deap et al. ([16]). […] Therefore, P. gingivalis virulence was assessed by alveolar bone loss, which was determined by measuring the distance from the alveolar bone crest (ABC) to the cemento enamel junction (CEJ).
The protocol used in this study (protocol 16486) was approved by the Institutional Animal Care and Use Committee at the University of Louisville under federal guidelines for the use and care of laboratory animals. Ten-week-old BALB/c/ByJ specific-pathogen-free mice were obtained from Jackson Laboratory (Bar Harbor, ME) and housed in the University of Louisville Research Resource Center animal facility. During the entire course of the study, mice were fed with Lab Diet 5001 (Purina Mills, LLC, Gray Summit, MO).
Oral infection of the mice was carried out essentially as described by Deap et al. ([18]). Prior to infection, mice were subjected to a combined antibiotic treatment for 10 days by providing animals with water ad libitum containing 800 μg/ml sulfamethoxazole (MP Biomedical, Solon, OH) and 400 μg/ml trimethoprim (Sigma, St. Louis, MO). Four days after the conclusion of the antibiotic treatment, mice were infected by oral gavage with 10^9 CFU of S. gordonii suspended in 2% carboxymethylcellulose (CMC; MP Biomedical) in sterile PBS using a 2.25-mm feeding needle (Popper and Son, Inc., New Hyde Park, NY). Infections were conducted every other day for a period of 10 days. Subsequently, mice were infected with 10^9 CFU P. gingivalis suspended in 2% CMC in PBS alone or in 2% CMC in PBS containing the small-molecule inhibitors every other day for 10 days. After the last infection with P. gingivalis, the mice were rested for 47 days and then euthanized by carbon dioxide asphyxiation.
To obtain the mouse skulls, the heads were removed and autoclaved for 15 min to remove flesh and musculature. The defleshed skulls were then immersed in 3% hydrogen peroxide overnight at room temperature to remove any remaining flesh. The skulls were submerged in deionized water to remove residual hydrogen peroxide, soaked in 1% bleach solution for 30 sec, sonicated at 14 V for 1 min, and washed again with deionized water. Samples were brushed using toothpaste, sonicated again in 1% bleach for an additional 30 sec at 14 V, and washed with water. The cleaned skulls were stained by immersion in 1% methylene blue for 15 sec, followed by washing with water until the excess dye was removed.
To measure alveolar bone loss, a dissecting microscope fitted with a video imaging marker measurement system (model VIA-170K; Fryer) was used. Bone loss was determined by measuring the distance between the alveolar bone crest (ABC) and cemento-enamel junction (CEJ) at eight sites on the buccal sides of both left and right maxillary molars. […] Data were analyzed using one-way analysis of variance (ANOVA; Graph Pad Prism, La Jolla, CA), and a pairwise parametric analysis of variance using a Bonferroni multiple-comparison posttest was used to determine the statistical difference among the individual mouse groups. A P value of ≤0.05 was considered statistically significant.

HL60 cells = details: 18 h
Description: The mouse macrophage cell line J774A.1 was grown in Dulbecco’s modified Eagle medium (DMEM) (Thermo Fisher Scientific, Waltham, MA) supplemented with 4.5 g/ml glucose, 10% fetal bovine serum (FBS), and 100 U/ml penicillin-streptomycin (Sigma-Aldrich, St. Louis, MO). HL60 (ATCC CCL240) cells were obtained from the American Type Culture Collection and cultured in Iscove’s modified Dulbecco’s medium (Sigma-Aldrich) supplemented with 20% fetal bovine serum (FBS) (Sigma-Aldrich).
The apoptotic activity of the compounds was determined using the phycoerythrin (PE) annexin V/dead cell apoptosis kit with Sytox green for flow cytometry (Invitrogen, Carlsbad, CA). Cells were grown in 12-well flat-bottom microtiter plates at an initial density 2 × 10^5 cells in 1.5-ml medium per well for 24 h. Following the incubation period, spent medium was replaced with fresh medium containing the desired concentration of the test compound and incubated for another 18 h. After trypsinization, cells were harvested by centrifuging at 250 × g for 4 min, and the cell pellet was suspended in 100 μl of binding buffer supplemented with 1 μl Sytox and 5 μl annexin V, followed by incubation at 37°C for 15 min. Samples were then diluted by adding 400-μl binding buffer, and flow cytometry was performed using a FACScalibur flow cytometer (Becton, Dickinson, Franklin Lakes, NJ), measuring the fluorescence emissions at 530 nm and 575 nm.

P. gingivalis = assay: microbicidal activity: growth curve in medium with compound; format: cell-based, Porphyromonas gingivalis; details: 40 μM, 24 h, OD600
Description: (§1) To confirm that N7, N17, and V8 function by inhibiting P. gingivalis adherence to S. gordonii rather than acting as antibacterial agents, the microbicidal activity of the compounds was determined by growing the organisms in medium containing 40 μM of each compound for 24 h. […] The structures of compounds N7, N17, and V8 are shown in Fig. 3A, B, and C, respectively. In addition, overlays of compound N17 with the NITVK motif and compound V8 with the VXXLL motif of Ag I/II are shown in Fig. 3D and E, respectively.
(§2) FIG 2 S. gordonii (A) and P. gingivalis (B) were grown for 24 h in medium containing 40 μM of each compound, and growth was quantified at various time points by measuring the OD600 for each culture. One-way analysis of variance (ANOVA) was performed to determine statistical significance.
(§3) P. gingivalis ATCC 33277 was cultured in reduced Trypticase soy broth-yeast extract (TSBY) medium comprised of 30 g/liter TSB (Difco Laboratories Inc., Detroit, MI), 5% (wt/vol) yeast extract supplemented with 5 mg/liter hemin and 1 mg/liter menadione under anaerobic conditions (10% CO2, 10% H2, and 80% N2) at 37°C for 48 h. Reduced TSBY medium was prepared by incubating the medium under anaerobic conditions at 37°C for 24 h prior to bacterial inoculation. Streptococcus gordonii DL1 was grown in brain heart infusion (BHI) (Difco Laboratories Inc.) broth supplemented with 5% (wt/vol) yeast extract under anaerobic conditions as described above.

S. gordonii = assay: as above; format: cell-based, Streptococcus gordonii; details: 40 μM, 24 h, OD600
Description: as §1, §2, §3

| Compound | alveolar bone loss relative to sham-infected mice (P. gingivalis virulence) | alveolar bone loss versus infected untreated mice (P. gingivalis virulence) | Early apoptosis (%) (HL60 cells; HL60, 5 μM) | Late apoptosis/necrosis (%) (HL60 cells; HL60, 5 μM) | Live cells (%) (HL60 cells; HL60, 5 μM) | Early apoptosis (%) (HL60 cells; HL60, 20 μM) | Late apoptosis/necrosis (%) (HL60 cells; HL60, 20 μM) | Live cells (%) (HL60 cells; HL60, 20 μM) | Early apoptosis (%) (HL60 cells; HL60, 40 μM) | Late apoptosis/necrosis (%) (HL60 cells; HL60, 40 μM) | Live cells (%) (HL60 cells; HL60, 40 μM) | growth curve versus medium alone or 0.1% DMSO (P. gingivalis) | growth curve versus medium alone or 0.1% DMSO (S. gordonii) | overt signs of distress or toxicity in treated mice (P. gingivalis virulence; transient exposure (∼20 min) during infection) |
| --- | --- | --- | --- | --- | --- | --- | --- | --- | --- | --- | --- | --- | --- | --- |
| Cc1cc([C@H]2CCCN(CC(=O)NC3(C#N)CCCC3)C2)n[nH]1 [V8, N-(1-cyanocyclopentyl)-2-[3-(5-methyl-1H-pyrazol-3-yl)piperidin-1-yl] acetamide] | modest increase in bone loss relative to the sham-infected group | significant reduction in alveolar bone loss | 2.9 | 5.6 | 91.8 | 3.7 | 5.0 | 91.3 | 2.4 | 6.7 | 88.4 | not significantly different | not significantly different |  |
| Cl.N=c1n(CCN2CCCCC2)c2ccccc2n1CC(O)COc1ccc(Cl)cc1 (stereo not shown) [N7, 1-(4-chlorophenoxy)-3-{2-imino-3-[2-(piperidin-1-yl)ethyl]-2,3-dihydro-1H-1,3-benzodiazol-1-yl}propan-2-ol hydrochloride] | modest increase in bone loss relative to the sham-infected group | significant reduction in alveolar bone loss | 3.6 | 7.8 | 87.4 | 20.9 | 43.9 | 27.3 | 7.7 | 70.8 | 18.9 | not significantly different | not significantly different | did not exhibit any overt signs of distress or toxicity |
| O=C(Nc1ccccc1O)c1cccc(N2C(=O)c3ccc(C(=O)Nc4ccccc4O)cc3C2=O)c1 [N17, N-(2-hydroxyphenyl)-2-{3-[(2-hydroxyphenyl)carbamoyl]phenyl}-1,3-dioxo-2,3-dihydro-1H-isoindole-5-carboxamide] | not significantly different from sham-infected animals | significant reduction in alveolar bone loss | 2.7 | 4.7 | 91.3 | 2.2 | 6.0 | 90.3 | 2.3 | 6.3 | 91.6 | not significantly different | not significantly different |  |
